Numbers after ± are expanded uncertainties.
Assay: cn = amount concentration of the nth substance listed, in mol/dm3
Settings: 101 kPa, Liquid; for viscosity: Capillary tube (Ostwald / Ubbelohde) method; for mass density: Pycnometric method

NCCCC[C@H](N)C(=O)[O-].[K+] [potassium L-lysinate] + O
Settings | mass density, 298 K [kg/m3] | mass density, 308 K [kg/m3] | mass density, 313 K [kg/m3] | viscosity, 298 K [mPa·s] | viscosity, 308 K [mPa·s] | viscosity, 313 K [mPa·s]
c1 = 0.5 | 1038.6 ± 0.3 | 1036.3 ± 0.3 | 1030.7 ± 0.4 | 1.162 ± 0.047 | 0.9848 ± 0.04 | 0.894 ± 0.036
c1 = 1.5 | 1108.9 ± 0.4 | 1107.5 ± 0.4 | 1105.1 ± 0.4 | 2.284 ± 0.092 | 1.905 ± 0.077 | 1.686 ± 0.068
c1 = 2.5 | 1173.8 ± 0.4 | 1171.1 ± 0.4 | 1168.8 ± 0.4 | 3.165 ± 0.13 | 2.653 ± 0.11 | 2.416 ± 0.098

Source: the NIST ThermoML archive (doi:10.1016/j.fluid.2015.03.031)
